Data from article PMC7413254 (Nature Communications, 2020).

Assays:
Format in all cases: cell-based
[1] = target: PfCRT^3D7 (Plasmodium falciparum, UniProt Q8IBZ9); experiment: cell-based; conditions: for [3H]CQ transport, PfCRT3D7 (% PfCRT3D7 control): trans-stimulation, solute 45 mM injected (estimated intracellular); for PfCRT-mediated [3H]CQ transport, trans-stimulation (% PfCRT3D7 control): PfCRT3D7 oocytes, normalised to oocyte type control
Summary of the method: (§1)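 Oocytes (ten per treatment, ≥4 independent frogs/days) were preloaded by injecting VF-6 in 25 nL ND96 at pH 5.0, 5.5, 6.0 or 7.0, or Na^+-free choline buffer, then uptake run 1.5 h, 27.5 °C, ND96 pH 5.5 by default. Internal concentrations assumed ~400 nL oocyte volume.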

[2] = target: T1, PfNT1 (Plasmodium falciparum, UniProt Q8IDM6); experiment: cell-based; conditions: trans-stimulation, solute 45 mM injected (estimated intracellular)
T1 construct: expressed in transfected cells; host or cells: Xenopus laevis oocytes (stage V-VI), cRNA-injected
Summary of the method: as §1

[3] = target: T2, PfCRT^Dd2 (Plasmodium falciparum, UniProt Q9N623, A220S/I356T/K76T/M74I/N326S/N75E/Q271E/R371I); experiment: [3H]CQ uptake into Xenopus oocytes, cis-inhibition by unlabelled solute; conditions: PfCRTDd2 oocytes, background [3H]CQ accumulation subtracted, normalised to oocyte type control
Summary of the method: (§2)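 Inward transport into oocyte cytosol from pH 5.5 medium models PfCRT efflux from the acidic digestive vacuole. Incubation 1.5 h, 27.5 °C; termination by ice-cold washes; lysate radioactivity counted.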

[4] = target: T3, PfCRT^Ecu1110 (Plasmodium falciparum, UniProt Q9N623, A220S/I356L/K76T/N326D); experiment: as above; conditions: for PfCRT-mediated [3H]CQ transport, cis-inhibition (% PfCRTEcu1110 control): PfCRTEcu1110 oocytes, background [3H]CQ accumulation subtracted, normalised to oocyte type control; for [3H]CQ transport (% PfCRTEcu1110 control), cis-inhibition, PfCRTEcu1110: PfCRT-mediated component (background subtracted), sheet title says normalised to PfCRTDd2 control, mean ± SEM, SEM
Summary of the method: as §2

[5] = target: T2, PfCRT^Dd2; experiment: cell-based; conditions: for PfCRT-mediated [3H]CQ transport, trans-stimulation (% PfCRTDd2 control): PfCRTDd2 oocytes, normalised to oocyte type control; for [3H]CQ transport (% PfCRTDd2 control), trans-stimulation, PfCRTDd2: PfCRT-mediated component (background subtracted), mean ± SEM, SEM
Summary of the method: as §1

[6] = target: T3, PfCRT^Ecu1110; experiment: cell-based; conditions: for PfCRT-mediated [3H]CQ transport, trans-stimulation (% PfCRTEcu1110 control): PfCRTEcu1110 oocytes, normalised to oocyte type control; for [3H]CQ transport (% PfCRTDd2 control), trans-stimulation, PfCRTEcu1110: PfCRT-mediated component (background subtracted), sheet title says normalised to PfCRTDd2 control, mean ± SEM, SEM
Summary of the method: as §1

[7] = [test solute]i = 5 mM (intracellular)
[8] = [test solute]i = 45 mM (intracellular; 30 mM for some solutes due to solubility)
[9] = [test solute]i = 5 mM (injected)
[10] = [test solute]i = 45 mM (30 mM for some solutes due to solubility)

T3 sequence (Q9N623 whole entry A220S/I356L/K76T/N326D): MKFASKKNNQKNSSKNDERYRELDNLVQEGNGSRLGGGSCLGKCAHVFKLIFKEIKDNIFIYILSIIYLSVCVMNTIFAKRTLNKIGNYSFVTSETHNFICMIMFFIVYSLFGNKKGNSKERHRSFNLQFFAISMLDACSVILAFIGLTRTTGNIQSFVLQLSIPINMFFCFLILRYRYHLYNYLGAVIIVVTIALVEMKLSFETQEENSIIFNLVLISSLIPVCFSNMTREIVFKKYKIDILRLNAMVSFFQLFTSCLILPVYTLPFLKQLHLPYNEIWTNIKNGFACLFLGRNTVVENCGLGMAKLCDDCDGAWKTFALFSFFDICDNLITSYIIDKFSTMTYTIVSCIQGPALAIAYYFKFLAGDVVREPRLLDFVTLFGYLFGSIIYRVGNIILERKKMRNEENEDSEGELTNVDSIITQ
T1 sequence (Q8IDM6 whole entry): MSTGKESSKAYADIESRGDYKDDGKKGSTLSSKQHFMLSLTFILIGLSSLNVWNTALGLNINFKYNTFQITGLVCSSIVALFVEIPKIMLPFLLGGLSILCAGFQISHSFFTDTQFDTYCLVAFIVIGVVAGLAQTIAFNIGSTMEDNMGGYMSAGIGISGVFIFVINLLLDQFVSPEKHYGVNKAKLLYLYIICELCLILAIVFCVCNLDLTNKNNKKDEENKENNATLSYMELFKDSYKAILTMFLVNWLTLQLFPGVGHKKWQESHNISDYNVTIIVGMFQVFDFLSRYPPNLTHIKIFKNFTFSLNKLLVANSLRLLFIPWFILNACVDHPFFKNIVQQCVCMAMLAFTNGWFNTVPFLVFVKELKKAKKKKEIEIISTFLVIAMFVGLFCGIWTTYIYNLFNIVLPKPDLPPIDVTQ
T2 sequence (Q9N623 whole entry A220S/I356T/K76T/M74I/N326S/N75E/Q271E/R371I): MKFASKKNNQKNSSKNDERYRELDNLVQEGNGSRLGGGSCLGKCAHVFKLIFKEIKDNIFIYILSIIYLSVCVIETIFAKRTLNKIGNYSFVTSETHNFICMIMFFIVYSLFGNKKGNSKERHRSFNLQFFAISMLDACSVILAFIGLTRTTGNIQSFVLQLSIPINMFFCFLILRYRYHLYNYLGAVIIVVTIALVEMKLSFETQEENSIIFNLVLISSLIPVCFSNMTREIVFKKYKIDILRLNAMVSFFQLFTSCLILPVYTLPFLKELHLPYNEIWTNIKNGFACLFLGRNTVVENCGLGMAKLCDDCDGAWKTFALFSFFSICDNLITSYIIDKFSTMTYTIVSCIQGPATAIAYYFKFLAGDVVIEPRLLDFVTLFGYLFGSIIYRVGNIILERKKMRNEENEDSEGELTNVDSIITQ
Chain of PfCRT^3D7 (Q8IBZ9 59-398): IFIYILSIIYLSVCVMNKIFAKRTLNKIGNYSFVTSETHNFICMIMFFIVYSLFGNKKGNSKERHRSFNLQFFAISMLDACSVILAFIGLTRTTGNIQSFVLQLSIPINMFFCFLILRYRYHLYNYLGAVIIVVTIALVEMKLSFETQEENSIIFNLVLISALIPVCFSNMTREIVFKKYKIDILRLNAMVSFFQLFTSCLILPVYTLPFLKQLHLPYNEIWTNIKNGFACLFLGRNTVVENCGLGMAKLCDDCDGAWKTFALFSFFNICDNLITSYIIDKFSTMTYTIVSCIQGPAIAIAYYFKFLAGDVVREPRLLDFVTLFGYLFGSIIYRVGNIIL

Row | Substance | PfCRT-mediated [3H]CQ transport, cis-inhibition (% PfCRTDd2 control) ([3]; [test solute] = 0.5 mM) | PfCRT-mediated [3H]CQ transport, cis-inhibition (% PfCRTDd2 control) ([3]; [test solute] = 1 mM) | PfCRT-mediated [3H]CQ transport, cis-inhibition (% PfCRTDd2 control) ([3]; [test solute] = 2 mM) | PfCRT-mediated [3H]CQ transport, cis-inhibition (% PfCRTEcu1110 control) ([4]; [test solute] = 0.5 mM) | PfCRT-mediated [3H]CQ transport, cis-inhibition (% PfCRTEcu1110 control) ([4]; [test solute] = 1 mM) | PfCRT-mediated [3H]CQ transport, cis-inhibition (% PfCRTEcu1110 control) ([4]; [test solute] = 2 mM) | [3H]CQ transport (% PfCRTEcu1110 control), cis-inhibition, PfCRTEcu1110 ([4]; [test solute] = 0.5 mM) [% PfCRTEcu1110 control] | [3H]CQ transport (% PfCRTEcu1110 control), cis-inhibition, PfCRTEcu1110 ([4]; [test solute] = 1 mM) [% PfCRTEcu1110 control] | [3H]CQ transport (% PfCRTEcu1110 control), cis-inhibition, PfCRTEcu1110 ([4]; [test solute] = 2 mM) [% PfCRTEcu1110 control] | PfCRT-mediated [3H]CQ transport, trans-stimulation (% PfCRT3D7 control) [1, 7] [% PfCRT3D7 control] | PfCRT-mediated [3H]CQ transport, trans-stimulation (% PfCRT3D7 control) [1, 8] [% PfCRT3D7 control] | PfCRT-mediated [3H]CQ transport, trans-stimulation (% PfCRTDd2 control) [5, 7] [% PfCRTDd2 control] | PfCRT-mediated [3H]CQ transport, trans-stimulation (% PfCRTDd2 control) [5, 8] [% PfCRTDd2 control] | [3H]CQ transport (% PfCRTDd2 control), trans-stimulation, PfCRTDd2 [5, 9] [% PfCRTDd2 control] | [3H]CQ transport (% PfCRTDd2 control), trans-stimulation, PfCRTDd2 [5, 10] [% PfCRTDd2 control] | PfCRT-mediated [3H]CQ transport, trans-stimulation (% PfCRTEcu1110 control) [6, 7] [% PfCRTEcu1110 control] | PfCRT-mediated [3H]CQ transport, trans-stimulation (% PfCRTEcu1110 control) [6, 8] [% PfCRTEcu1110 control] | [3H]CQ transport (% PfCRTDd2 control), trans-stimulation, PfCRTEcu1110 [6, 9] [% PfCRTEcu1110 control] | [3H]CQ transport (% PfCRTDd2 control), trans-stimulation, PfCRTEcu1110 [6, 10] [% PfCRTEcu1110 control] | other results
1 | AHAGEYGAEALE [AE-12] | – | – | – | – | – | – | – | – | – | – | – | – | – | – | – | – | – | – | – | [3H]CQ transport, PfCRT3D7 (% PfCRT3D7 control) ([1]; Experiment 1): 100.93 % PfCRT3D7 control; [3H]CQ transport, PfCRT3D7 (% PfCRT3D7 control) ([1]; Experiment 2): 94.28 % PfCRT3D7 control; [3H]CQ transport, PfCRT3D7 (% PfCRT3D7 control) ([1]; Experiment 3): 100.75 % PfCRT3D7 control; [3H]CQ transport, PfCRT3D7 (% PfCRT3D7 control) ([1]; Experiment 4): 102.32 % PfCRT3D7 control; [3H]CQ transport, PfNT1 (% PfCRTDd2 control) ([2]; Experiment 1): 2.23 % PfCRTDd2 control; [3H]CQ transport, PfNT1 (% PfCRTDd2 control) ([2]; Experiment 2): 2.37 % PfCRTDd2 control; [3H]CQ transport, PfNT1 (% PfCRTDd2 control) ([2]; Experiment 3): 2.71 % PfCRTDd2 control; [3H]CQ transport, PfNT1 (% PfCRTDd2 control) ([2]; Experiment 4): 2.43 % PfCRTDd2 control
2 | YIGSR [YR-5] | 73 ± 3.9 | 58 ± 3.1 | 61 ± 2.9 | 71 ± 1.6 | 55 ± 1.4 | 49 ± 2.4 | 22 ± 0.1 | 17 ± 0.4 | 15 ± 0.1 | 98 ± 2.6 | 94 ± 2.1 | 94 ± 4.6 | 96 ± 4.1 | 94 ± 4.6 | 96 ± 4.1 | 98 ± 4.2 | 96 ± 3.5 | 30 ± 1.7 | 29 ± 1.3 | –
3 | YPWTQ [YQ-5] | 67 ± 2.2 | 51 ± 3.2 | 27 ± 1.1 | 72 ± 6.9 | 61 ± 1.4 | 49 ± 2.5 | 23 ± 0.4 | 19 ± 0.3 | 15 ± 0.5 | 96 ± 3.5 | 97 ± 3.7 | 97 ± 4.6 | 96 ± 2.7 | 97 ± 4.6 | 96 ± 2.7 | 99 ± 3.5 | 98 ± 2.2 | 30 ± 1.0 | 30 ± 1.3 | –
